What was measured:
Conditions in all cases: Compound concentration 1000.0 nM
[1] = molecular target: STE20/SPS1-related proline-alanine-rich protein kinase (Homo sapiens) (UniProt Q9UEW8)
[2] = system: Phosphatidylinositol 4,5-bisphosphate 3-kinase catalytic subunit alpha isoform (Homo sapiens), P42336 [E545A]
[3] = system: Proto-oncogene tyrosine-protein kinase receptor Ret (Homo sapiens), P07949 [V804M]
[4] = molecular target: T1, Bone morphogenetic protein receptor type-2 (Homo sapiens) (UniProt Q13873)
T1 sequence (whole entry): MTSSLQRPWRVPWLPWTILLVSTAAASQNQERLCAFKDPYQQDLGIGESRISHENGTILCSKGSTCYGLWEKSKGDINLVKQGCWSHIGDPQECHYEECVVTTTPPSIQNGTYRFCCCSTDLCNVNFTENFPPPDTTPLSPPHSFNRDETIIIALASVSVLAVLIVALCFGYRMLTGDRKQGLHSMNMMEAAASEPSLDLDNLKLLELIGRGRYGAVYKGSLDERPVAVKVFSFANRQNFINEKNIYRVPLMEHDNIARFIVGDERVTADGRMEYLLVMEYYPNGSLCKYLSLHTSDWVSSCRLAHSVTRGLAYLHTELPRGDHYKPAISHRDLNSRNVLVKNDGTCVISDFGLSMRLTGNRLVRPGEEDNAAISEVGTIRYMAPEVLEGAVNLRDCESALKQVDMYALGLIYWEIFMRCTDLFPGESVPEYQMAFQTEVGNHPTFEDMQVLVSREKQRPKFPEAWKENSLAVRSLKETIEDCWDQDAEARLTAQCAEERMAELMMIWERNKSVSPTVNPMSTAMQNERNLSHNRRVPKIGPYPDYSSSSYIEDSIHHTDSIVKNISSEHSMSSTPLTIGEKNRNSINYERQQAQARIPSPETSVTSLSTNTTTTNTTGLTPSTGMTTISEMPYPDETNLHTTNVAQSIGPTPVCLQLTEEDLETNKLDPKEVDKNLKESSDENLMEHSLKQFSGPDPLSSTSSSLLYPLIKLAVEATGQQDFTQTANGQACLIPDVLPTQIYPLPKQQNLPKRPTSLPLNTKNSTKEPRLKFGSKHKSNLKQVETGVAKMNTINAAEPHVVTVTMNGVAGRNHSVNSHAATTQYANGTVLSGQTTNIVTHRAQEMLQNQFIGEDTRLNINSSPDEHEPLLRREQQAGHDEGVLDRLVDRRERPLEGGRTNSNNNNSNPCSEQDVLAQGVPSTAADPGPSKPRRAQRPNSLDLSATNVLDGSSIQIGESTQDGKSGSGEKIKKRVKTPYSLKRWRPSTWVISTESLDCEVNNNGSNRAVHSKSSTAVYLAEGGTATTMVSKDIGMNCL

[5] = molecular target: Non-receptor tyrosine-protein kinase TYK2 (Homo sapiens) (UniProt P29597)
[6] = molecular target: Activin receptor type-1-like (Homo sapiens) (UniProt P37023)
[7] = system: Hepatocyte growth factor receptor (Homo sapiens), P08581 [M1250T]
[8] = molecular target: T2, Ephrin type-B receptor 2 (Homo sapiens) (UniProt P29323)
T2 sequence (whole entry): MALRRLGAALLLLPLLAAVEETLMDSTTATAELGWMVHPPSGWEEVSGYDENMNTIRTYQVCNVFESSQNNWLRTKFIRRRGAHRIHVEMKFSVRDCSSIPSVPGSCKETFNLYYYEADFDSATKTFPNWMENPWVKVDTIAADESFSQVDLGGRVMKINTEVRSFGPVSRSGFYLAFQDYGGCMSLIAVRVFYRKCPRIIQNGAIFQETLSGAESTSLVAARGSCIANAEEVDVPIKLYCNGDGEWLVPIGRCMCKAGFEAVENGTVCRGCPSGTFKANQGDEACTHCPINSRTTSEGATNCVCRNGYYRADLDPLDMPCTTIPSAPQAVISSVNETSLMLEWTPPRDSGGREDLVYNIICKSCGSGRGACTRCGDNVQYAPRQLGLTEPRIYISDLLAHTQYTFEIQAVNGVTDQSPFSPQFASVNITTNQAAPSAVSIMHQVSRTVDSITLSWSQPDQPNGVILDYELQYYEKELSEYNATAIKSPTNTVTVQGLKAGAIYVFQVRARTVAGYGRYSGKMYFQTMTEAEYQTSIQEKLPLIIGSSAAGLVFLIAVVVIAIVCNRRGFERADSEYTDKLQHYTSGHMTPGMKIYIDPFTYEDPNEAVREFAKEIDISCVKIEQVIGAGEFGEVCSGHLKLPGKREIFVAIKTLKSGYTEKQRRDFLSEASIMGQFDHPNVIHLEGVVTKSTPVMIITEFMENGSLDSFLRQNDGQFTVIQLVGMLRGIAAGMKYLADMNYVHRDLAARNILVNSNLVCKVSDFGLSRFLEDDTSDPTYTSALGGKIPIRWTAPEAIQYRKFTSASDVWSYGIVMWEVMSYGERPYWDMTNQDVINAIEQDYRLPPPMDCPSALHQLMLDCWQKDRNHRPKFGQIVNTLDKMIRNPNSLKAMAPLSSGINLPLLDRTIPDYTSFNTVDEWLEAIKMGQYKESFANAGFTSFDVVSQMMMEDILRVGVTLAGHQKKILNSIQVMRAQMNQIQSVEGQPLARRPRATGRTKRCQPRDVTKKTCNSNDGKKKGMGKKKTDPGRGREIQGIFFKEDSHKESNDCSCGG

Sequence of Proto-oncogene tyrosine-protein kinase receptor Ret (Homo sapiens), P07949 [V804M] (P07949 whole entry V804M): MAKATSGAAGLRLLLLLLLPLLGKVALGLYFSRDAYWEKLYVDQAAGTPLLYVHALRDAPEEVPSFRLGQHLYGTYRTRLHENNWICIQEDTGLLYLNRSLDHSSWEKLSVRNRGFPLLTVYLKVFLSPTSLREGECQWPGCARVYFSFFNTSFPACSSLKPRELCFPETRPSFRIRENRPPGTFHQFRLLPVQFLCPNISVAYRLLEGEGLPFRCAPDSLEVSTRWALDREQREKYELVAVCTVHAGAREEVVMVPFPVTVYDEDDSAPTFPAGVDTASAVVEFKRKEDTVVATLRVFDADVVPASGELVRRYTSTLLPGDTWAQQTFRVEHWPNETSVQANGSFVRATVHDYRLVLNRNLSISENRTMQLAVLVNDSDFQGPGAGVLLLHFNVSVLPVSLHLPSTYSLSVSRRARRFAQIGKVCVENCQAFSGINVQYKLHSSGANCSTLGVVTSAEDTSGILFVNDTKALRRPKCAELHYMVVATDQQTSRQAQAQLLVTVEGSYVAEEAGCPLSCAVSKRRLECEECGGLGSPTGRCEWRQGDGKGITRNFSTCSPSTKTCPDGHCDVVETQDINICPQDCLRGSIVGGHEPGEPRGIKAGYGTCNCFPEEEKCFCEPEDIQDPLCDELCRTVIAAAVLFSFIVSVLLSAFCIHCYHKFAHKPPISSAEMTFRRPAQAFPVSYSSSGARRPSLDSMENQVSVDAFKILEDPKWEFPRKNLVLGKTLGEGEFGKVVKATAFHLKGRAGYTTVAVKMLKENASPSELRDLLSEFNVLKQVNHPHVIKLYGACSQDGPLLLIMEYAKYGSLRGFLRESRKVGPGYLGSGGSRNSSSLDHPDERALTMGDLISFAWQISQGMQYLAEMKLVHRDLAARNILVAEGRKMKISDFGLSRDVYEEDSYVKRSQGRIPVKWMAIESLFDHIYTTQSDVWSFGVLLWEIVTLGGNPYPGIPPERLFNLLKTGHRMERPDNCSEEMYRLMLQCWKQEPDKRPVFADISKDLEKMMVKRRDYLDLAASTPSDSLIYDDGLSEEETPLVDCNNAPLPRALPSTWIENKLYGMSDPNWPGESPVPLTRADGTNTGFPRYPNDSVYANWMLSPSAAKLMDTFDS
Sequence of Non-receptor tyrosine-protein kinase TYK2 (Homo sapiens) (P29597 whole entry): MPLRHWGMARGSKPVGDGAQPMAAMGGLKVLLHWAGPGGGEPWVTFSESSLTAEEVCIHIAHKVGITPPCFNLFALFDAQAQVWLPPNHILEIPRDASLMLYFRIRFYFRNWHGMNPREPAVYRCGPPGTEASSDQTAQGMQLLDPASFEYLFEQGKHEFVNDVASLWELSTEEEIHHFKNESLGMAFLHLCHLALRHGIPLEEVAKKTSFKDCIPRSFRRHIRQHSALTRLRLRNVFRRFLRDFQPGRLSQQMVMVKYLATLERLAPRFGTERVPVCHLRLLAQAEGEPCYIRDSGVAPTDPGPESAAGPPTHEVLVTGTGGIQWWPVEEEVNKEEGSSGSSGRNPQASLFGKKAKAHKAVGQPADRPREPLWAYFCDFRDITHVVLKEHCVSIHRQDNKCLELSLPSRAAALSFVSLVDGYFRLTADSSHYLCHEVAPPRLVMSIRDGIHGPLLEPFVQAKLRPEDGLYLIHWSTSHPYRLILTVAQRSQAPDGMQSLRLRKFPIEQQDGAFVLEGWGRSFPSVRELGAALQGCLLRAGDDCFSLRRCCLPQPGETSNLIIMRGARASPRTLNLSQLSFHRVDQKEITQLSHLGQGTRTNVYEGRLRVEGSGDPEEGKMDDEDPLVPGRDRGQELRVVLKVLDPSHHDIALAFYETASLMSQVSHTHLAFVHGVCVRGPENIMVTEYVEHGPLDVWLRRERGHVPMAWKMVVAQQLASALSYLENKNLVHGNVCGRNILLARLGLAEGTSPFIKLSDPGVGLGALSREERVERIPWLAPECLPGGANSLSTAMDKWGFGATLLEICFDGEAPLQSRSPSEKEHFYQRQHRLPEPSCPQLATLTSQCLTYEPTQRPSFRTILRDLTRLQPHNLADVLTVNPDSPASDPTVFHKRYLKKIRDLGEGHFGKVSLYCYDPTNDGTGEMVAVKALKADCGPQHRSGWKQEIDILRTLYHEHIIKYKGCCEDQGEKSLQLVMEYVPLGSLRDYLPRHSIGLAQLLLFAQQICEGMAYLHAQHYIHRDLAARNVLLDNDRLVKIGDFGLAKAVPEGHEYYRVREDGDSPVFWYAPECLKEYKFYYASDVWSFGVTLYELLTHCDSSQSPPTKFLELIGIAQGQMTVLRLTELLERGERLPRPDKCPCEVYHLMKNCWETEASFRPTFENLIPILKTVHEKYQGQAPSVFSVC
Sequence of Activin receptor type-1-like (Homo sapiens) (P37023 whole entry): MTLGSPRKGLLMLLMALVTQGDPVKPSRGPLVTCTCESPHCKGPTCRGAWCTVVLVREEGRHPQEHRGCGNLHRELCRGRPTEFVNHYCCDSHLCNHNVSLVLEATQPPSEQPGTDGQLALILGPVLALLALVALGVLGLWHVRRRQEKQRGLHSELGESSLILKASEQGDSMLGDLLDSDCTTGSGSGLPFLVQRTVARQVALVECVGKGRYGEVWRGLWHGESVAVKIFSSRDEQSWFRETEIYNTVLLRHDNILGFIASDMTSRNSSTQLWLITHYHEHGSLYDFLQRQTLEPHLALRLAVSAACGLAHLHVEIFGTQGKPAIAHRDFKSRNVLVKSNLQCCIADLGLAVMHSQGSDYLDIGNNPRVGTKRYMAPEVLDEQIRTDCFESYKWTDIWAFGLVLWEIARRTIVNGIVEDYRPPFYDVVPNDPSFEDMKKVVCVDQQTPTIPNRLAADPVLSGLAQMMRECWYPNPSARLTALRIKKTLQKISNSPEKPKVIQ
Sequence of Phosphatidylinositol 4,5-bisphosphate 3-kinase catalytic subunit alpha isoform (Homo sapiens), P42336 [E545A] (P42336 whole entry E545A, canonical isoform): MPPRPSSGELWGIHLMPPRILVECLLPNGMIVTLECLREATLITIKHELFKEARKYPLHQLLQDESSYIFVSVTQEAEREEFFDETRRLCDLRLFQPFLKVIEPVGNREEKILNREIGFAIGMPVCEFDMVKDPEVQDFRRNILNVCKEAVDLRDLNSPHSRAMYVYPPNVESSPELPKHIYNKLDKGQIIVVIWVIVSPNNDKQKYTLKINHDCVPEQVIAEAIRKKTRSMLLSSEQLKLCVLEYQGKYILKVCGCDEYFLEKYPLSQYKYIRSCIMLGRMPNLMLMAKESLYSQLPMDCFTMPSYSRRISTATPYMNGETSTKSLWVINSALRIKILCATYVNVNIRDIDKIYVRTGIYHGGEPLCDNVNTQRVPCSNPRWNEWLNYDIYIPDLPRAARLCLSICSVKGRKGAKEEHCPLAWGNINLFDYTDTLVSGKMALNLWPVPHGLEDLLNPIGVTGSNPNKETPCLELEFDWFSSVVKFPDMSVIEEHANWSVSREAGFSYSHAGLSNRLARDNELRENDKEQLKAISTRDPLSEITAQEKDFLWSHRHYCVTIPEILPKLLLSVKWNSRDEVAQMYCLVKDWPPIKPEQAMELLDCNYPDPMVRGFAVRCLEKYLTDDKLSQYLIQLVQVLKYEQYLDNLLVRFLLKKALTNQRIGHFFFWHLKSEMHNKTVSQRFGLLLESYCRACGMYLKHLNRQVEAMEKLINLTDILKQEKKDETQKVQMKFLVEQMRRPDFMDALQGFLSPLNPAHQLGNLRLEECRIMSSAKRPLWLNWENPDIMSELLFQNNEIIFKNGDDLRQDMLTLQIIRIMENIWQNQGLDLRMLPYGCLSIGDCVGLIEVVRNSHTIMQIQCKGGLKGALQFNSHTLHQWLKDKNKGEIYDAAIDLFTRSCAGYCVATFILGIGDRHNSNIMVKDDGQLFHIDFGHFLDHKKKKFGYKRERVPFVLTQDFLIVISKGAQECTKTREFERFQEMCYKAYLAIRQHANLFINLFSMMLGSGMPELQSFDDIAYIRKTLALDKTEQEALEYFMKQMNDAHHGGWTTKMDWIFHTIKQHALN

CCc1ccccc1C(=O)Nc1n[nH]c2c(C)c(F)c(C3C(C#N)=C(C)N(C)C(C)=C3C#N)cc12 [BAY-3827]
residual activity [1]: 100%
residual activity [2]: 100%
residual activity [3]: 11%
residual activity [4]: 100%
residual activity [5]: 100%
residual activity [6]: 75%
residual activity [7]: 25%
residual activity [8]: 76%

CC1=C(C#N)C(c2ccc3c(c2)c(NC(=O)c2ccccc2C)nn3C)C(C#N)=C(C)N1 [BAY-974]
residual activity [1]: 92%
residual activity [2]: 71%
residual activity [3]: 91%
residual activity [4]: 79%
residual activity [5]: 82%
residual activity [6]: 97%
residual activity [7]: 27%
residual activity [8]: 86%
